# Source: ChEMBL document CHEMBL5113376, “Antimalarial application of quinones: A recent update” (Eur J Med Chem, 2021)
# Tests used:
# Plasmodium berghei [1] = assay: In vivo antiplasmodial activity against Chloroquine susceptible Plasmodium berghei ANKA infected in CD-1 mouse assessed as decrease in parasitaemia at 30 to 50 mg/kg/day, ip relative to control; format: functional; design: scale not given: the % may be the effect or the level left; settings: dose 30-50 mg/kg/day
# Plasmodium falciparum [2] = assay: Antimalarial activity against Plasmodium falciparum Dd2 treated for 48 hrs followed by hypoxanthine addition; format: functional, organism-based; settings: Dd2, 48 h
# Plasmodium falciparum [3] = assay: Antimalarial activity against Plasmodium falciparum K14 incubated for 42 hrs in presence of 3H-hypoxanthine by top-count microbeta counter analysis; format: functional, organism-based
# Plasmodium falciparum [4] = assay: Antiplasmodial activity against chloroquine sensitive Plasmodium falciparum F-32 Tanzania incubated for 48 hrs; format: functional, organism-based
# Plasmodium falciparum [5] = assay: Antimalarial activity against Plasmodium falciparum Dd2 by 96-well microtitre plate method based scintillation counting analysis; format: functional, organism-based
# Plasmodium falciparum [6] = assay: Antiplasmodial activity against Plasmodium falciparum K1; format: functional, organism-based
# HepG2 = assay: Cytotoxicity against human HepG2 cells incubated for 24 hrs by MTT assay; format: functional
# Plasmodium falciparum [7] = assay: Antimalarial activity against Plasmodium falciparum W2 incubated for 24 hrs; format: functional, organism-based; settings: Plasmodium falciparum, W2, 24 h
# A549 = assay: Cytotoxicity against human A549 cells incubated for 24 hrs by MTT assay; format: functional
# Plasmodium falciparum [8] = assay: Antimalarial activity against chloroquine sensitive Plasmodium falciparum D10 incubated for 72 hrs by spectrophotometric analysis; format: functional, organism-based; settings: D10, 72 h
# [9] = Cytotoxicity against HMEC-1 cells treated for 72 hrs by MTT assay; format: toxicity, cell-based; settings: human
# Plasmodium falciparum [10] = assay: Antimalarial activity against chloroquine resistant Plasmodium falciparum W2 incubated for 72 hrs by spectrophotometric analysis; format: functional, organism-based; settings: W2, 72 h
# Plasmodium falciparum [11] = assay: Antimalarial activity against Plasmodium falciparum W2; format: functional, organism-based
# Plasmodium falciparum [12] = assay: Antimalarial activity against Plasmodium falciparum D6; format: functional, organism-based
# Plasmodium berghei [13] = assay: Antimalarial activity against Plasmodium berghei; format: functional, organism-based
# Plasmodium falciparum [14] = assay: Antimalarial activity against Plasmodium falciparum TM91C235; format: functional, organism-based
# [15] = Selectivity index, ratio of CC50 for african green monkey Vero cells to IC50 for Chloroquine resistant Plasmodium falciparum K1; format: toxicity; settings: read-out: Ratio CC50/IC50
# [16] = Cytotoxicity against African green monkey Vero cells; format: toxicity, cell-based; settings: chlorocebus sabaeus
# Plasmodium falciparum [17] = assay: Antimalarial activity against chloroquine resistant Plasmodium falciparum K1 incubated for 72 hrs by SYBR green staining based fluorescence reader method; format: functional, organism-based; settings: K1, 72 h
# Plasmodium falciparum [18] = assay: Antimalarial activity against Plasmodium falciparum 3D7 infected in human erythrocytes; format: functional, organism-based; settings: 3D7, Erythrocyte
# Plasmodium falciparum [19] = assay: Antiplasmodial activity against Chloroquine resistant Plasmodium falciparum FcB1 incubated for 48 hrs by SYBR green I based fluorescence assay; format: functional, organism-based; settings: FcB1, 48 h
# Plasmodium berghei [20] = assay: In vivo antiplasmodial activity against Plasmodium berghei ANKA infected in CD-1 mouse assessed as decrease in parasitaemia at 50 mg/kg, ip measured after 4 days relative to control; format: functional; design: scale not given: the % may be the effect or the level left; settings: time 4 day
# Plasmodium falciparum [21] = assay: Antiplasmodial activity against Plasmodium falciparum Dd2 incubated for 48 hrs; format: functional, organism-based; settings: Dd2, 48 h
# Plasmodium falciparum [22] = assay: Antiplasmodial activity against Plasmodium falciparum 3D7 incubated for 48 hrs; format: functional, organism-based; settings: 3D7, 48 h
# Plasmodium falciparum [23] = assay: Antimalarial activity against Plasmodium falciparum K1 by 96-well microtitre plate method based scintillation counting analysis; format: functional, organism-based; settings: Plasmodium falciparum, K1
# [24] = Cytotoxicity against human MRC5 cells incubated for 24 hrs by MTT assay; format: toxicity, cell-based
# [25] = Cytotoxicity against […] LLC-PK1 cells incubated for 24 hrs by MTT assay; format: toxicity, cell-based, Sus scrofa; settings: pig
# Plasmodium falciparum [26] = assay: Antimalarial activity against Plasmodium falciparum D10; format: functional, organism-based
# [27] = Cytotoxicity against HMEC-1 cells; format: toxicity, cell-based; settings: human
# Plasmodium berghei [28] = assay: In vivo plasmodial activity against Plasmodium berghei ANKA infected in Swiss mouse assessed as survival rate at 50 mg/kg, ip for 4 days after infection relative to control; format: functional; settings: time 4 day
smiles,measurement,setting,value
CC1=C(Cc2ccc([N+](=O)[O-])cc2)C(=O)c2ccccc2C1=O,Activity,Plasmodium berghei [1],20.7%
same,IC50,Plasmodium falciparum [2],0.046 µM
O=C1c2ccccc2C(=O)c2cc(C3C(Oc4ccc5ccccc5c4)C(=O)N3c3cccc4ccccc34)ccc21 (centres undefined),IC50,Plasmodium falciparum [3],39 µM
O=C1C=C(OCc2cn(/C=C/c3ccc(C(F)(F)F)cc3)nn2)C(=O)c2ccccc21,IC50,Plasmodium falciparum [4],3.3 µM
CC(C)=CCC1=C(O)C(=O)c2c(O)ccc(O)c2C1=O,IC50,Plasmodium falciparum [5],0.8 µg/mL
O=C(O)c1ccc2c(n1)C(=O)C1=C(C2=O)S(=O)(=O)C=CN1,IC50,Plasmodium falciparum [6],0.6 µM
COc1ccc(N2C(=O)C(Oc3ccc(Cl)cc3Cl)C2c2ccc3c(c2)C(=O)c2ccccc2C3=O)cc1 (centres undefined),IC50,Plasmodium falciparum [3],47 µM
CC1(C)CCC2=C(O1)c1ccccc1C(=O)C2=O [LAPACHONE],CC50,HepG2,2.09 µM
same,IC50,Plasmodium falciparum [7],20.5 µM
same,CC50,A549,2.09 µM
CCC1=C(NC(=O)C(C)(C)C)C(=O)C2=C(C1=O)S(=O)(=O)CCN2,IC50,Plasmodium falciparum [8],6.15 µM
same,IC50 at 72 h,[9],> 100 µM
same,IC50,Plasmodium falciparum [10],6.31 µM
COc1ccc(N2C(=O)C(Oc3ccc(Cl)cc3)C2c2ccc3c(c2)C(=O)c2ccccc2C3=O)cc1 (centres undefined),IC50,Plasmodium falciparum [3],38 µM
C[C@@H](CCCCCC(F)(F)F)CC1=C(O)C(=O)c2ccccc2C1=O,IC50,Plasmodium falciparum [11],0.065 µM
same,IC50,Plasmodium falciparum [12],0.005 µM
same,IC50,Plasmodium berghei [13],0.017 µM
same,IC50,Plasmodium falciparum [14],0.084 µM
Cc1cc(O)c2c(c1)C(=O)c1cc(O)c(CN3CCN(C)CC3)c(O)c1C2=O,selectivity ratio,[15],315
same,CC50,[16],782 µM
same,IC50,Plasmodium falciparum [17],2.48 µM
O=C(Cn1cc(COC2=CC(=O)c3ccccc3C2=O)nn1)c1ccc(-c2ccccc2)cc1,IC50,Plasmodium falciparum [4],1.6 µM
COc1ccc(CC2=C(O)C(=O)c3ccccc3C2=O)cc1,IC50,Plasmodium falciparum [18],16 µM
CC(C)(C)CC1=C(O)C(=O)c2ccccc2C1=O,IC50,Plasmodium falciparum [18],15.2 µM
CC1(C)OC2=C(CC1I)C(=O)C(=O)c1ccccc12 (centres undefined),IC50,Plasmodium falciparum [7],15.8 µM
COc1ccc2c(c1)C1=C(C(=O)C2=O)C(C)(C)C(C)O1 (centres undefined),IC50,Plasmodium falciparum [19],0.58 µM
CC1=C(Cc2ccc(Br)cc2)C(=O)c2ccccc2C1=O,Activity,Plasmodium berghei [20],35.8%
same,IC50,Plasmodium falciparum [2],0.046 µM
CC1=C(Cc2ccc(C(F)(F)F)cc2)C(=O)c2ccccc2C1=O,Activity,Plasmodium berghei [1],20.7%
CC1=C(Cc2ccc(C(C)(C)C)cc2)C(=O)c2ccccc2C1=O,Activity,Plasmodium berghei [1],20.7%
same,IC50,Plasmodium falciparum [2],0.054 µM
Cc1cc2c(o1)C(=O)c1ccccc1C2=O,IC50,Plasmodium falciparum [21],1.2 µM
same,IC50,Plasmodium falciparum [22],1.5 µM
COc1cc(OC)c(-c2c(C)cc(O)c3c2C(=O)c2cccc(O)c2C3=O)c(O)c1C(C)=O,IC50,Plasmodium falciparum [23],0.751 µg/mL
CC(C)=CCC1=C(O)C(=O)c2ccccc2C1=O [LAPACHOL],CC50 at 24 h,[24],≥ 285 µM
same,CC50 at 24 h,[25],≥ 285 µM
same,CC50,HepG2,≥ 285 µM
same,IC50,Plasmodium falciparum [7],80 µM
same,CC50,A549,≥ 285 µM
COC1=C(Cc2ccc(OC(F)(F)F)cc2)C(=O)C2=C(NCCS2(=O)=O)C1=O,IC50,Plasmodium falciparum [11],1.12 µM
same,IC50,Plasmodium falciparum [26],0.81 µM
same,IC50,[27],3.59 µM
O=C1c2ccccc2C(=O)c2cc(C3C(Oc4ccccc4)C(=O)N3c3cccc4ccccc34)ccc21 (centres undefined),IC50,Plasmodium falciparum [3],41 µM
CN(C)c1ccc(N2C(=O)C(Oc3ccc(Cl)cc3Cl)C2c2ccc3c(c2)C(=O)c2ccccc2C3=O)cc1 (centres undefined),IC50,Plasmodium falciparum [3],48 µM
O=C1C=C(OCc2cn(-c3ccccc3)nn2)C(=O)c2ccccc21,IC50,Plasmodium falciparum [4],1.2 µM
COc1cccc2c1C1=C(C(=O)C2=O)C(C)(C)C(C)O1 (centres undefined),Activity,Plasmodium berghei [28],80%
same,IC50,Plasmodium falciparum [19],0.63 µM
O=C1C(O)=C(Cc2ccc([N+](=O)[O-])cc2)C(=O)c2ccccc21,IC50,Plasmodium falciparum [18],13.7 µM
COc1ccc(N2C(=O)C(Oc3ccccc3)C2c2ccc3c(c2)C(=O)c2ccccc2C3=O)cc1 (centres undefined),IC50,Plasmodium falciparum [3],27 µM
